# Target: T1, human alpha2A-adrenergic receptor (Homo sapiens, UniProt P08913)
# T1 construct: human HT29 cells (RB-HAL2A, NEN, Zaventem, Belgium), which endogenously express the alpha2A-adrenergic receptor; purchased NEN, Zaventem, Belgium RB-HAL2A; host or cells: human HT29 cells (endogenous expression), membrane preparation
# T1 sequence (P08913 1-465): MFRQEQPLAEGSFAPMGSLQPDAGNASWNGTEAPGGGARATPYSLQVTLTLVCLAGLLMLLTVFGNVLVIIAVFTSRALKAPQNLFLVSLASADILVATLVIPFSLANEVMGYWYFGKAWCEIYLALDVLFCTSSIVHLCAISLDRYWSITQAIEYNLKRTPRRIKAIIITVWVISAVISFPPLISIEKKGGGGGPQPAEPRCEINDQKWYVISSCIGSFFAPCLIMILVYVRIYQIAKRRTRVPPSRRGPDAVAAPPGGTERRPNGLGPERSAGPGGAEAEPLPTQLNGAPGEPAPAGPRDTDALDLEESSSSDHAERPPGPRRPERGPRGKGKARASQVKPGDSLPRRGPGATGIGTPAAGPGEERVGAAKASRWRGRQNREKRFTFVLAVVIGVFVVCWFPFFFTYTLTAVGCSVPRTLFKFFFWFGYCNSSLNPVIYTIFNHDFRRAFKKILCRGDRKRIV
# Experiment: Binding affinity to human alpha2A-adrenergic receptor ([3H]-MK-912 displacement, HT29 cell membrane preparation)
# Details: compound concentration 10 NM [sic] (method: 10 μmol/l); displacement of 0.5 nmol/l [3H]-MK-912; HT29 membranes; pH 7.4
# Experimental: Method for Determining the Binding Affinity to Human Alpha2A-adrenergic Receptor
# The affinity of the compounds according to the invention to the pain-relevant alpha2A-receptor was investigated as follows.
# The receptor affinity of the compounds according to the invention to human alpha2A-adrenergic receptor was determined in a microtiter plate batch. For this purpose, the compounds to be tested were incubated in a concentration of 10 μmol/l with a receptor membrane preparation of human HT29 cells (RB-HAL2A, NEN, Zaventem, Belgium), which endogenously express the alpha2A-adrenergic receptor, at a protein concentration of 40 μg protein/250 μl incubation batch in the presence of 0.5 nmol/l of the radioactively marked ligands [3H]-MK-912 (NET-1059, NEN, Zaventem, Belgium) for 30 minutes, with exclusion of light, at ambient temperature. A 25 mmol/l sodium phosphate buffer at a pH of 7.4 was used as the buffer system. The unspecific bond was determined in the presence of 10 μmol/l phentolamine. After incubation, the microtiter plates were filtered on glass fiber microtiter filter plates (Whatman GF/B, Hassel, Munich) using a Brandel Cell Harvester (MPRI-96T type, Hassel, Munich) and after drying of the glass fiber filter plates and subsequent charging of the plates with 35 μl of a scintillator (Ultima Gold, Canberra-Packard, Freiburg) were measured in a microtiter plate counter (1450 Microbeta Trilux, PerkinElmer-Wallac, Freiburg) after a delay of at least 90 minutes. The glass fiber microtiter filter plates were each pretreated prior to filtration of the incubation plates for 30 minutes with 50 μl per indentation of a 25 mmol/l sodium phosphate buffer supplemented by 0.5% (v/v) polyethylene imine at a pH of 7.4. The percentage inhibition effect of the compounds was calculated as a displacement of the radioactive ligand from its specific bond to the human alpha2A-adrenergic receptor.
# Determining the Binding Affinity to Human Alpha2A-adrenergic Receptor
# The binding affinities to human alpha2A-adrenergic receptor were determined by the foregoing methods.
row,inhibition at 10 µM,SMILES
1,100%,"OC1(Cc2ccc(Cl)cc2Cl)C(CN2CCCCC2)CCCC1CN1CCCCC1 (stereo not drawn) [1-(2,4-dichlorobenzyl)-2,6-bis-piperidin-1-ylmethyl-cyclohexanol]"
2,100%,"Cc1ccc(C)c(CC2(O)C(CN3CCCCC3)CCCC2CN2CCCCC2)c1 (stereo not drawn) [1-(2,5-dimethyl-benzyl)-2,6-bis-piperidin-1-ylmethyl-cyclohexanol]"
3,68%,"OC1(Cc2c(F)cccc2Cl)C(CN2CCCCC2)CCCC1CN1CCCCC1 (stereo not drawn) [1-(2-chloro-6-fluorobenzyl)-2,6-bis-piperidin-1-ylmethyl-cyclohexanol]"
4,100%,"OC1(Cc2ccccc2Cl)C(CN2CCCCC2)CCCC1CN1CCCCC1 (stereo not drawn) [1-(2-chlorobenzyl)-2,6-bis-piperidin-1-ylmethyl-cyclohexanol]"
5,30%,"COc1ccccc1C1(O)C(CN2CCCCC2)CCCC1CN1CCCCC1 (stereo not drawn) [1-(2-methoxy-phenyl)-2,6-bis-piperidin-1-ylmethyl-cyclohexanol]"
6,100%,"Cc1ccccc1CC1(O)C(CN2CCCCC2)CCCC1CN1CCCCC1 (stereo not drawn) [1-(2-methyl-benzyl)-2,6-bis-piperidin-1-ylmethyl-cyclohexanol]"
7,33%,"OC1(c2cc(Cl)cc(Cl)c2)C(CN2CCCCC2)CCCC1CN1CCCCC1 (stereo not drawn) [1-(3,5-dichlorophenyl)-2,6-bis-piperidin-1-ylmethyl-cyclohexanol]"
8,38%,"OC1(c2ccc(F)c(Cl)c2)C(CN2CCCCC2)CCCC1CN1CCCCC1 (stereo not drawn) [1-(3-chloro-4-fluorophenyl)-2,6-bis-piperidin-1-ylmethyl-cyclohexanol]"
9,98%,"OC1(Cc2cccc(Cl)c2)C(CN2CCCCC2)CCCC1CN1CCCCC1 (stereo not drawn) [1-(3-chlorobenzyl)-2,6-bis-piperidin-1-ylmethyl-cyclohexanol]"
10,51%,"OC1(c2cccc(Cl)c2)C(CN2CCCCC2)CCCC1CN1CCCCC1 (stereo not drawn) [1-(3-chlorophenyl)-2,6-bis-piperidin-1-ylmethyl-cyclohexanol]"
11,59%,"OC1(Cc2cccc(F)c2)C(CN2CCCCC2)CCCC1CN1CCCCC1 (stereo not drawn) [1-(3-fluorobenzyl)-2,6-bis-piperidin-1-ylmethyl-cyclohexanol]"
12,48%,"OC1(c2cccc(F)c2)C(CN2CCCCC2)CCCC1CN1CCCCC1 (stereo not drawn) [1-(3-fluorophenyl)-2,6-bis-piperidin-1-ylmethyl-cyclohexanol]"
13,80%,"COc1cccc(CC2(O)C(CN3CCCCC3)CCCC2CN2CCCCC2)c1 (stereo not drawn) [1-(3-methoxy-benzyl)-2,6-bis-piperidin-1-ylmethyl-cyclohexanol]"
14,100%,"Cc1cccc(CC2(O)C(CN3CCCCC3)CCCC2CN2CCCCC2)c1 (stereo not drawn) [1-(3-methyl-benzyl)-2,6-bis-piperidin-1-ylmethyl-cyclohexanol]"
15,26%,"OC1(c2ccc(Cl)c(C(F)(F)F)c2)C(CN2CCCCC2)CCCC1CN1CCCCC1 (stereo not drawn) [1-(4-chloro-3-trifluoromethyl-phenyl)-2,6-bis-piperidin-1-ylmethyl-cyclohexanol]"
16,88%,"OC1(Cc2ccc(Cl)cc2)C(CN2CCCCC2)CCCC1CN1CCCCC1 (stereo not drawn) [1-(4-chlorobenzyl)-2,6-bis-piperidin-1-ylmethyl-cyclohexanol]"
17,87%,"OC1(Cc2ccc(F)cc2)C(CN2CCCCC2)CCCC1CN1CCCCC1 (stereo not drawn) [1-(4-fluorobenzyl)-2,6-bis-piperidin-1-ylmethyl-cyclohexanol]"
18,56%,"OC1(c2cccc(C(F)(F)F)c2)C(CN2CCCCC2)CCCC1CN1CCCCC1 (stereo not drawn) [2,6-bis-piperidin-1-ylmethyl-1-(3-trifluoromethyl-phenyl)-cyclohexanol]"
